Assay results taken from the supplement of paper PMC6045584.
± gives the standard deviation of the averaged measurements.

What was measured:
[1] = compound: CC(=O)NCC(=O)N1[C@@H]2CC[C@H]1c1ccc(Nc3ncc(C(F)(F)F)c(NC4CCC4)n3)cc12; test: surviving fraction relative to DMSO-only wells; higher = less growth inhibition; conditions: exposure time: 5 days
How it was run: (§1)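 Surviving fraction was calculated by normalising CellTiter-Glo luminescence to the median of DMSO-only wells. Tumour cell lines in log phase were seeded in 384-well plates at 250–500 cells per well, and 24 hours later were exposed continuously for five days to inhibitors at 0.5, 1, 5, 10, 50, 100, 500 and 1000 nM.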

[2] = compound: CC(=O)c1c(C)c2cnc(Nc3ccc(N4CCNCC4)cn3)nc2n(C2CCCC2)c1=O; test: as above; conditions: exposure time: 5 days
How it was run: as §1

Test System | surviving fraction ([1]; 0.5 nM) | surviving fraction ([1]; 1 nM) | surviving fraction ([1]; 5 nM) | surviving fraction ([1]; 10 nM) | surviving fraction ([1]; 50 nM) | surviving fraction ([1]; 100 nM) | surviving fraction ([1]; 500 nM) | surviving fraction ([1]; 1000 nM) | surviving fraction ([2]; 0.5 nM) | surviving fraction ([2]; 1 nM) | surviving fraction ([2]; 5 nM) | surviving fraction ([2]; 10 nM) | surviving fraction ([2]; 50 nM) | surviving fraction ([2]; 100 nM) | surviving fraction ([2]; 500 nM) | surviving fraction ([2]; 1000 nM)
22RV1 PROSTATE | 0.97 ± 0.066 | 0.996 ± 0.047 | 0.937 ± 0.029 | 0.95 ± 0.03 | 0.587 ± 0.021 | 0.678 ± 0.026 | 0.625 ± 0.059 | 0.56 ± 0.066 | 1.05 ± 0.089 | 1.06 ± 0.032 | 1.04 ± 0.067 | 1.048 ± 0.0085 | 1.09 ± 0.053 | 1.11 ± 0.08 | 1.11 ± 0.071 | 1.03 ± 0.027
93VU HEADNECK | 0.823 ± 0.059 | 0.803 ± 0.035 | 0.951 ± 0.029 | 1 ± 0.061 | 0.895 ± 0.055 | 0.682 ± 0.0098 | 0.331 ± 0.043 | 0.114 ± 0.021 | 1.09 ± 0.1 | 1.04 ± 0.09 | 1.12 ± 0.049 | 1.07 ± 0.025 | 1.18 ± 0.12 | 1.14 ± 0.14 | 1.17 ± 0.038 | 1.19 ± 0.045
A549 LUNG | 0.952 ± 0.013 | 0.93 ± 0.018 | 0.906 ± 0.016 | 0.911 ± 0.014 | 0.686 ± 0.024 | 0.65 ± 0.031 | 0.585 ± 0.014 | 0.445 ± 0.022 | 1.03 ± 0.035 | 1.02 ± 0.018 | 1.05 ± 0.0087 | 0.993 ± 0.039 | 1.07 ± 0.063 | 1.12 ± 0.042 | 1.154 ± 0.007 | 1.116 ± 0.011
ASKA SYNOVIAL | 0.973 ± 0.052 | 0.908 ± 0.012 | 0.972 ± 0.085 | 0.912 ± 0.084 | 0.365 ± 0.018 | 0.335 ± 0.023 | 0.34 ± 0.012 | 0.386 ± 0.035 | 1.04 ± 0.06 | 0.971 ± 0.057 | 1.06 ± 0.094 | 1.02 ± 0.071 | 1.07 ± 0.1 | 1.08 ± 0.074 | 0.82 ± 0.034 | 0.73 ± 0.023
BT20 BREAST | 1.03 ± 0.028 | 0.968 ± 0.062 | 1.02 ± 0.09 | 0.87 ± 0.051 | 0.365 ± 0.054 | 0.199 ± 0.038 | 0.293 ± 0.041 | 0.291 ± 0.055 | 1.12 ± 0.19 | 1.06 ± 0.3 | 0.955 ± 0.23 | 0.982 ± 0.1 | 0.981 ± 0.32 | 0.924 ± 0.24 | 0.916 ± 0.22 | 0.86 ± 0.21
BT549 BREAST | 1.11 ± 0.058 | 1.09 ± 0.046 | 1.04 ± 0.12 | 1.05 ± 0.073 | 0.993 ± 0.1 | 0.494 ± 0.071 | 0.409 ± 0.071 | 0.237 ± 0.014 | 1.1 ± 0.12 | 1.124 ± 0.0096 | 1.22 ± 0.14 | 1.03 ± 0.098 | 1.13 ± 0.17 | 0.979 ± 0.16 | 1.12 ± 0.12 | 1.05 ± 0.036
C33A CERVIX | 0.77 ± 0.079 | 0.707 ± 0.032 | 0.895 ± 0.062 | 0.953 ± 0.069 | 0.665 ± 0.087 | 0.515 ± 0.03 | 0.396 ± 0.011 | 0.351 ± 0.012 | 0.978 ± 0.065 | 1.05 ± 0.066 | 1.14 ± 0.13 | 1.08 ± 0.067 | 1.15 ± 0.13 | 1.2 ± 0.11 | 1.01 ± 0.082 | 1.16 ± 0.12
CADOES1 SOFT TISSUE | 0.969 ± 0.1 | 0.955 ± 0.099 | 0.883 ± 0.094 | 0.849 ± 0.1 | 0.565 ± 0.074 | 0.109 ± 0.011 | 0.0853 ± 0.005 | 0.0867 ± 0.0065 | 0.962 ± 0.048 | 0.897 ± 0.11 | 0.821 ± 0.078 | 0.883 ± 0.13 | 0.83 ± 0.053 | 0.921 ± 0.039 | 0.726 ± 0.011 | 0.704 ± 0.048
CAL51 BREAST | 1.01 ± 0.041 | 0.9652 ± 0.005 | 0.988 ± 0.032 | 0.946 ± 0.013 | 0.675 ± 0.019 | 0.222 ± 0.0058 | 0.144 ± 0.0039 | 0.146 ± 0.009 | 0.964 ± 0.089 | 0.962 ± 0.055 | 0.982 ± 0.037 | 0.94 ± 0.06 | 0.997 ± 0.029 | 1.07 ± 0.012 | 0.968 ± 0.052 | 0.908 ± 0.0048
CAL72 BONE | 1.06 ± 0.039 | 1.09 ± 0.051 | 1.12 ± 0.057 | 1.04 ± 0.011 | 0.917 ± 0.032 | 0.846 ± 0.022 | 0.571 ± 0.025 | 0.419 ± 0.026 | 1.1 ± 0.066 | 1.12 ± 0.061 | 1.12 ± 0.025 | 1.13 ± 0.05 | 1.13 ± 0.037 | 1.14 ± 0.022 | 1.14 ± 0.078 | 1.07 ± 0.048
CAL120 BREAST | 0.923 ± 0.051 | 0.9253 ± 0.0041 | 0.945 ± 0.029 | 0.9333 ± 0.0076 | 0.8605 ± 0.0059 | 0.643 ± 0.025 | 0.489 ± 0.053 | 0.387 ± 0.047 | 0.953 ± 0.017 | 0.965 ± 0.026 | 0.9478 ± 0.0082 | 0.9508 ± 0.0056 | 1.01 ± 0.014 | 0.974 ± 0.0098 | 0.9508 ± 0.0081 | 0.935 ± 0.013
CASKI CERVIX | 0.928 ± 0.014 | 0.939 ± 0.042 | 0.968 ± 0.072 | 0.946 ± 0.067 | 0.771 ± 0.049 | 0.214 ± 0.018 | 0.199 ± 0.015 | 0.133 ± 0.0061 | 1.02 ± 0.062 | 0.971 ± 0.028 | 0.999 ± 0.038 | 0.977 ± 0.015 | 1.09 ± 0.034 | 1.08 ± 0.019 | 1.05 ± 0.049 | 1.05 ± 0.028
CHLA90 AUTONOMIC GANGLIA | 0.951 ± 0.025 | 0.983 ± 0.046 | 0.96 ± 0.028 | 0.91 ± 0.039 | 0.754 ± 0.032 | 0.5867 ± 0.0055 | 0.436 ± 0.045 | 0.301 ± 0.037 | 1.04 ± 0.067 | 1.06 ± 0.02 | 1.04 ± 0.075 | 1.01 ± 0.055 | 0.934 ± 0.013 | 0.95 ± 0.035 | 0.839 ± 0.053 | 0.687 ± 0.015
CME SYNOVIAL | 1.13 ± 0.079 | 1.02 ± 0.17 | 0.992 ± 0.16 | 1.08 ± 0.066 | 0.915 ± 0.032 | 0.395 ± 0.036 | 0.255 ± 0.02 | 0.33 ± 0.015 | 1.23 ± 0.18 | 1.27 ± 0.14 | 1.3 ± 0.18 | 1.18 ± 0.11 | 1.37 ± 0.062 | 1.23 ± 0.099 | 1.22 ± 0.066 | 1.09 ± 0.14
COLO320DM LARGE INTESTINE | 1.1 ± 0.058 | 1.09 ± 0.077 | 0.979 ± 0.086 | 0.954 ± 0.035 | 0.573 ± 0.087 | 0.559 ± 0.02 | 0.283 ± 0.0029 | 0.237 ± 0.015 | 1.084 ± 0.0093 | 1.08 ± 0.04 | 1.12 ± 0.038 | 1.1 ± 0.039 | 1.08 ± 0.065 | 1.05 ± 0.048 | 0.78 ± 0.061 | 0.735 ± 0.039
G292 BONE | 0.997 ± 0.043 | 0.968 ± 0.052 | 0.999 ± 0.025 | 0.949 ± 0.015 | 0.59 ± 0.028 | 0.485 ± 0.017 | 0.181 ± 0.0022 | 0.087 ± 0.001 | 1 ± 0.068 | 0.976 ± 0.033 | 1 ± 0.024 | 1.02 ± 0.045 | 0.951 ± 0.062 | 0.929 ± 0.058 | 0.678 ± 0.025 | 0.678 ± 0.036
